According to patent publication US12473273B2, “Quinoline compounds and compositions for inhibiting EZH2” (Novartis AG, priority 2020, dated 2025):
pIC50: −log10 of the molar value.

Columns and labels:
[1] = target: wild type PRC2 (wtPRC2) complex (Homo sapiens, UniProt Q15910); assay: EZH2 LC-MS Assay; type: biochemical; settings: 40 nM wtPRC2 complex, 30 uM SAM, 1.5 uM H3K27me1 and 3 uM H3K27me3 peptides; SAH production
Method: Representative compounds of the invention were serially and separately diluted 3-fold in DMSO to obtain twelve concentrations. Then the test compounds at each concentration (120 nL of each) were transferred by Mosquito into a 384-well Perkin Elmer ProxiPlate 384 plus plates. Solutions (6 μL) of 80 nM wild type PRC2 (wtPRC2) complex and 60 µM SAM in reaction buffer (20 mM Tris, pH 8.0, 0.1% BSA, 0.01% Triton, 0.5 mM DTT) were added to the wells that were then incubated with the test compound for 20 min. A 6 μL solution of 3 µM of the substrate peptide H3K27me1 (histone H3 [21-44]-K27me1-biotin) and 6 μM regulatory peptide H3K27me3 (histone H3 [21-44]-K27me3) in reaction buffer was added to initiate each reaction. The final components in the reaction solution include 40 nM wtPRC2 complex, 30 µM SAM, 1.5 µM H3K27me1 and 3 µM H3K27me3 peptides with varying concentration of the compounds. A positive control consisted of the enzyme at 40 nM, 30 μM SAM, 1.5 µM H3K27me1 and 3 µM H3K27me3 in the absence of the test compound, and a negative control consisted of 30 µM SAM, 1.5 µM H3K27me1 and 3 μM H3K27me3 only. Each reaction was incubated at room temperature for 120 min, then stopped by addition of 3 μL per of quench solution (2.5% TFA with 320 nM d4-SAH). The reaction mixture was centrifuged (Eppendorf centrifuge 5810, Rotor A-4-62) for 2 min at 2000 rpm and read on an API 4000 triple quadrupole mass spec with Turbulon Spray (Applied Biosystem) coupled with Prominence UFLC (Shimadzu). The levels of SAH production were normalized based on the values coming from the positive and negative controls to give percent enzyme activities. The data were fit to a dose response equation using the program Helios to get the […] values of the test compound.

[2] = system: H3K27 methylation in G401 cell; assay: ELISA (H3K27 methylation) assay; type: cell-based; settings: cultured 48 h with compound, normalized using H3 signal
Method: ELISA (H3K27 methylation) assay
Representative compounds of the invention were serially and separately diluted 3-fold in DO to obtain a total of eight or twelve concentrations. Then the compounds were added to G401 cell cultured in 384-well plate at 1:500 dilution to obtain the highest concentration of 20 μM. The cells were further cultured for 48 h before ELISA procedure.
Histone extraction: Cells, in 384-well plate, were washed with PBS (10 x PBS buffer (80 g NaCl (Sigma, S3014), 2 g KCl (Sigma, 60128), 14.4 g Na2HPO4 (Sigma, S5136), 2.4 g KH2PO4 (Sigma, P9791) to 1 L water, pH to 7.4) and lysed with the addition of lysis buffer (0.4N HCl; 45 μl per well). The plate was gently agitated at 4° C. for 30 min. The cell lysate was neutralized with neutralization buffer (0.5 M sodium phosphate dibasic, pH 12.5. 1 mM DTT; 36 µL per well). The plate was agitated to ensure the lysates were well mixed prior to the ELISA protocol.
ELISA protocol: Cell lysates were transferred to the wells of a 384-well plate and the final volume was adjusted to 50 μL per well with PBS. The plate was sealed, centrifuged at 2,000 rpm for 2 min and incubated at 4° C. for about 16 h. The plate was washed with TBST buffer (1 x TBS (10x TBS: 24.2 g Tris (Sigma, T6066), 80 g NaCl (Sigma, S3014) to 1 L of water and adjust pH to 7.6 with HCl) with 0.1% Tween-20). Blocking buffer (TBST, 5% BSA; 50 µL per well) was added and the plate was incubated for 1 h at rt. The blocking buffer was removed and primary antibody was added (30 μL per well). The following dilutions were performed with blocking buffer: for anti-H3K27me3 antibody (Cell Signaling Technology, #9733), dilution was 1:1000; for anti-H3K27me2 antibody (Cell Signaling Technology, #9288), dilution was 1:100; for anti-H3 antibody (Abcam, Cat #24834), dilution was 1:1000. The primary antibody was incubated in the plate at rt for 1 h. The wells were washed with TBST and incubated with secondary antibody for 1 h at rt. For secondary antibodies, the following dilutions were carried out with blocking buffer: anti-rabbit antibody (Jackson ImmunoResearch, #111-035-003), dilution was 1:2000; and anti-mouse antibody (Cell signaling technology, #7076), dilution was 1:1000.
After 1 h of incubation at rt, the wells were washed with TBST. ECL substrate (Pierce, #34080) was added at 30 μL per well and the plates were centrifuged at 2,000 rpm for 2 min. The signal was read using a PerkinElmer Envision Reader. The H3K27 methylation readouts were normalized using H3 signal and then percentage inhibition was calculated against the samples treated with DO. The data were fit to a dose response curve using the program Helios to get the IC50 values of the test compound.

Chain of wild type PRC2 (wtPRC2) complex (Q15910 whole entry): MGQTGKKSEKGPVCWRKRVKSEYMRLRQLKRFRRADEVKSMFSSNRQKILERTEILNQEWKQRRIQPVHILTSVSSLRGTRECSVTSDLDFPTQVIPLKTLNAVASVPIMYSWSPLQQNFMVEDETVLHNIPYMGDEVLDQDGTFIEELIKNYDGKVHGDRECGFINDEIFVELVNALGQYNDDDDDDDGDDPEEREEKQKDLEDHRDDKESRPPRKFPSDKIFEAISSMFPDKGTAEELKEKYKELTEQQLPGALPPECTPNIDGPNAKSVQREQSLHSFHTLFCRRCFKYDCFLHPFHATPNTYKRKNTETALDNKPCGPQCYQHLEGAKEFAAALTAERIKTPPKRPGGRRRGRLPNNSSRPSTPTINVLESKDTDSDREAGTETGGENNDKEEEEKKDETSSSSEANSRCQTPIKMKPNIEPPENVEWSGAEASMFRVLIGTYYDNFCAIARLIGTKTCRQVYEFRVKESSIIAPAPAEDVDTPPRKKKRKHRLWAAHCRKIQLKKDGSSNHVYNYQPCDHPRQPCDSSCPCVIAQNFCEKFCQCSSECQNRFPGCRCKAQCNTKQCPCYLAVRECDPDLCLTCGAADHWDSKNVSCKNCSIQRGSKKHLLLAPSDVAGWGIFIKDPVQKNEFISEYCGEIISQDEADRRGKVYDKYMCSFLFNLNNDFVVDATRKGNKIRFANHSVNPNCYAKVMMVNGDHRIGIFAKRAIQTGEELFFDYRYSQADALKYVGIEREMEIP
Chain of wild type PRC2 (wtPRC2) complex (O75530 whole entry partner): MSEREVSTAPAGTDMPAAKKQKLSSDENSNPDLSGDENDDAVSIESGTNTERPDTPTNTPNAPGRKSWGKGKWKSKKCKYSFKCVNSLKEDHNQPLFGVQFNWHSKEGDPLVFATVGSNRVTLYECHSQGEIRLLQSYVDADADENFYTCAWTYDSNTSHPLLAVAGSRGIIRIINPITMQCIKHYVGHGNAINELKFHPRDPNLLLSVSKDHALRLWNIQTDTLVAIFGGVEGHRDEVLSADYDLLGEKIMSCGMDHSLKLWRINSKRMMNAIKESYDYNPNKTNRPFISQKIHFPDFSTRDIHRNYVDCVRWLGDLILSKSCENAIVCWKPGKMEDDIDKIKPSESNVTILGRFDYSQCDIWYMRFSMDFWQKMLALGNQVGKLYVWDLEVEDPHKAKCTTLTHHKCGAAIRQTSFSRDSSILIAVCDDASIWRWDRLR
Chain of wild type PRC2 (wtPRC2) complex (Q15022 whole entry partner): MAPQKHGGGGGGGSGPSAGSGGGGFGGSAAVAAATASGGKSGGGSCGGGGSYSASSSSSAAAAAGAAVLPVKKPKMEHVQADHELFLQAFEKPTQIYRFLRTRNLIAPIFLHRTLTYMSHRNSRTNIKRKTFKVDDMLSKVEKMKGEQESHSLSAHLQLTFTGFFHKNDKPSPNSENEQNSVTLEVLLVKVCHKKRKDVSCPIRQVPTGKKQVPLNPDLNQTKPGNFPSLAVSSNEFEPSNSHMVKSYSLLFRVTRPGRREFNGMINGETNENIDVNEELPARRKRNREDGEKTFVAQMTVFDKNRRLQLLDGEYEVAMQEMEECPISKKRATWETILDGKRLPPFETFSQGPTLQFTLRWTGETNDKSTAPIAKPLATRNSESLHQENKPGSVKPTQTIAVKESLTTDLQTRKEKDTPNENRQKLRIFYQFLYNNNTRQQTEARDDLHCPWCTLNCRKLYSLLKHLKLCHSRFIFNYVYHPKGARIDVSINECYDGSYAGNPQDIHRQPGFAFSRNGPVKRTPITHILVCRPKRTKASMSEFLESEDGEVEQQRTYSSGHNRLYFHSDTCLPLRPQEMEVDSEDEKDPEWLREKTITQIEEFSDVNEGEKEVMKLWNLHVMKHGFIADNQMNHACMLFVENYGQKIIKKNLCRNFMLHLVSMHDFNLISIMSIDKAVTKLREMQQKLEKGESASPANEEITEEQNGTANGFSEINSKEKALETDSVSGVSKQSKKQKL

pIC50 [1] | Structure (SMILES) | pIC50 ([2]; Homo sapiens, G-401, 48 h) | pIC50 [2]
7.00 to 7.30 | Cc1ccc2ccc(N[C@H]3CC[C@H](CNc4ncc([C@@H](CO)C(=O)NC5COC5)cn4)CC3)nc2c1Cl (single isomer, unassigned) [Example 7, (S)-2-(2-((((1r,4S)-4-((8-chloro-7-methylquinolin-2-yl)amino)cyclohexyl)methyl)amino)pyrimidin-5-yl)-3-hydroxy-N-(oxetan-3-yl)propanamide; or (R)-2-(2-((((1r,4R)-4-((8-chloro-7-methylquinolin-2-yl)amino)cyclohexyl)methyl)amino)pyrimidin-5-yl)-3-hydroxy-N-(oxetan-3-yl)propanamide] | 7.00 to 8.00 | 
> 7.30 | Cc1ccc2ccc(N[C@H]3CC[C@H](CNc4ncc([C@@H](CO)C(=O)NC5COC5)cn4)CC3)nc2c1Cl (single isomer, unassigned) [Example 8, (S)-2-(2-((((1r,4S)-4-((8-chloro-7-methylquinolin-2-yl)amino)cyclohexyl)methyl)amino)pyrimidin-5-yl)-3-hydroxy-N-(oxetan-3-yl)propanamide; or (R)-2-(2-((((1r,4R)-4-((8-chloro-7-methylquinolin-2-yl)amino)cyclohexyl)methyl)amino)pyrimidin-5-yl)-3-hydroxy-N-(oxetan-3-yl)propanamide] |  | > 8.00
7.00 to 7.30 | Cc1ccc2ccc(N[C@H]3CC[C@H](CNc4ncc([C@H](O)C(=O)NC5COC5)cn4)CC3)nc2c1Cl (single isomer, unassigned) [Example 10, (S)-2-(2-((((1r,4S)-4-((8-chloro-7-methylquinolin-2-yl)amino)cyclohexyl)methyl)amino)pyrimidin-5-yl)-2-hydroxy-N-(oxetan-3-yl)acetamide; or (R)-2-(2-((((1r,4R)-4-((8-chloro-7-methylquinolin-2-yl)amino)cyclohexyl)methyl)amino)pyrimidin-5-yl)-2-hydroxy-N-(oxetan-3-yl)acetamide] | 7.00 to 8.00 | 
> 7.30 | Cc1ccc2ccc(N[C@H]3CC[C@H](CNc4ncc([C@H](O)C(=O)NC5COC5)cn4)CC3)nc2c1Cl (single isomer, unassigned) [Example 11, (S)-2-(2-((((1r,4S)-4-((8-chloro-7-methylquinolin-2-yl)amino)cyclohexyl)methyl)amino)pyrimidin-5-yl)-2-hydroxy-N-(oxetan-3-yl)acetamide; or (R)-2-(2-((((1r,4R)-4-((8-chloro-7-methylquinolin-2-yl)amino)cyclohexyl)methyl)amino)pyrimidin-5-yl)-2-hydroxy-N-(oxetan-3-yl)acetamide] |  | > 8.00
> 7.30 | Cc1ccc2ccc(N[C@H]3CC[C@H](CNc4ncc([C@H](C)C(=O)NC5COC5)cn4)CC3)nc2c1Cl (single isomer, unassigned) [Example 13, (S)-2-(2-((((1r,4S)-4-((8-chloro-7-methylquinolin-2-yl)amino)cyclohexyl)methyl)amino)pyrimidin-5-yl)-N-(oxetan-3-yl)propanamide; or (R)-2-(2-((((1r,4R)-4-((8-chloro-7-methylquinolin-2-yl)amino)cyclohexyl)methyl)amino)pyrimidin-5-yl)-N-(oxetan-3-yl)propanamide] |  | 
> 7.30 | Cc1ccc2ccc(N[C@H]3CC[C@H](CNc4ncc([C@H](C)C(=O)NC5COC5)cn4)CC3)nc2c1Cl (single isomer, unassigned) [Example 14, (S)-2-(2-((((1r,4S)-4-((8-chloro-7-methylquinolin-2-yl)amino)cyclohexyl)methyl)amino)pyrimidin-5-yl)-N-(oxetan-3-yl)propanamide; or (R)-2-(2-((((1r,4R)-4-((8-chloro-7-methylquinolin-2-yl)amino)cyclohexyl)methyl)amino)pyrimidin-5-yl)-N-(oxetan-3-yl)propanamide] |  | 
> 7.30 | Cc1ccc2ccc(N[C@H]3CC[C@H](CNc4ncc(CC(=O)NC5COC5)cn4)CC3)nc2c1Cl [Example 1, 2-(2-((((1R,4R)-4-((8-chloro-7-methylquinolin-2-yl)amino)cyclohexyl)methyl)amino)pyrimidin-5-yl)-N-(oxetan-3-yl)acetamide] | > 8.00 | 
> 7.30 | Cc1ccc2ccc(N[C@H]3CC[C@H](CNc4ncc(CC(=O)N(C)C5COC5)cn4)CC3)nc2c1Cl [Example 2, 2-(2-((((1r,4r)-4-((8-chloro-7-methylquinolin-2-yl)amino)cyclohexyl)methyl)amino)pyrimidin-5-yl)-N-methyl-N-(oxetan-3-yl)acetamide] | > 8.00 | 
> 7.30 | Cc1ccc2ccc(N[C@H]3CC[C@H](CNc4ncc(C(F)(F)C(=O)NC5COC5)cn4)CC3)nc2c1Cl [Example 3, 2-(2-((((1r,4r)-4-((8-chloro-7-methylquinolin-2-yl)amino)cyclohexyl)methyl)amino)pyrimidin-5-yl)-2,2-difluoro-N-(oxetan-3-yl)acetamide] | > 8.00 | 
> 7.30 | Cc1ccc2ccc(N[C@H]3CC[C@H](CNc4ncc(C(C)(O)C(=O)NC5COC5)cn4)CC3)nc2c1Cl (some centres unmarked) [Example 4, 2-(2-((((1r,4r)-4-((8-chloro-7-methylquinolin-2-yl)amino)cyclohexyl)methyl)amino)pyrimidin-5-yl)-2-hydroxy-N-(oxetan-3-yl)propanamide] | < 7.00 | 
> 7.30 | Cc1ccc2ccc(N[C@H]3CC[C@H](CNc4ncc(C(C#N)C(=O)NC5COC5)cn4)CC3)nc2c1Cl (some centres unmarked) [Example 5, 2-(2-((((1r,4r)-4-((8-chloro-7-methylquinolin-2-yl)amino)cyclohexyl)methyl)amino)pyrimidin-5-yl)-2-cyano-N-(oxetan-3-yl)acetamide] | > 8.00 | 
> 7.30 | Cc1ccc2ccc(N[C@H]3CC[C@H](CNc4ncc(C(CO)C(=O)NC5COC5)cn4)CC3)nc2c1Cl (some centres unmarked) [Example 6, 2-(2-((((1r,4r)-4-((8-chloro-7-methylquinolin-2-yl)amino)cyclohexyl)methyl)amino)pyrimidin-5-yl)-3-hydroxy-N-(oxetan-3-yl)propanamide] | > 8.00 | 
> 7.30 | Cc1ccc2ccc(N[C@H]3CC[C@H](CNc4ncc(C(O)C(=O)NC5COC5)cn4)CC3)nc2c1Cl (some centres unmarked) [Example 9, 2-(2-((((1r,4r)-4-((8-chloro-7-methylquinolin-2-yl)amino)cyclohexyl)methyl)amino)pyrimidin-5-yl)-2-hydroxy-N-(oxetan-3-yl)acetamide] | > 8.00 | 
> 7.30 | Cc1ccc2ccc(N[C@H]3CC[C@H](CNc4ncc(C(C)C(=O)NC5COC5)cn4)CC3)nc2c1Cl (some centres unmarked) [Example 12, 2-(2-((((1r,4r)-4-((8-chloro-7-methylquinolin-2-yl)amino)cyclohexyl)methyl)amino)pyrimidin-5-yl)-N-(oxetan-3-yl)propanamide] | > 8.00 | 
